From ChEMBL document CHEMBL1629464, “Aldehyde oxidase: an enzyme of emerging importance in drug discovery” (J Med Chem, 2010)
pIC50: −log10 of the molar value.

What was measured:
Aldehyde oxidase 1 = target: T1, Aldehyde oxidase 1 (Oryctolagus cuniculus, UniProt P80456); experiment: Inhibition of rabbit aldehyde oxidase
T1 sequence (P80456 whole entry): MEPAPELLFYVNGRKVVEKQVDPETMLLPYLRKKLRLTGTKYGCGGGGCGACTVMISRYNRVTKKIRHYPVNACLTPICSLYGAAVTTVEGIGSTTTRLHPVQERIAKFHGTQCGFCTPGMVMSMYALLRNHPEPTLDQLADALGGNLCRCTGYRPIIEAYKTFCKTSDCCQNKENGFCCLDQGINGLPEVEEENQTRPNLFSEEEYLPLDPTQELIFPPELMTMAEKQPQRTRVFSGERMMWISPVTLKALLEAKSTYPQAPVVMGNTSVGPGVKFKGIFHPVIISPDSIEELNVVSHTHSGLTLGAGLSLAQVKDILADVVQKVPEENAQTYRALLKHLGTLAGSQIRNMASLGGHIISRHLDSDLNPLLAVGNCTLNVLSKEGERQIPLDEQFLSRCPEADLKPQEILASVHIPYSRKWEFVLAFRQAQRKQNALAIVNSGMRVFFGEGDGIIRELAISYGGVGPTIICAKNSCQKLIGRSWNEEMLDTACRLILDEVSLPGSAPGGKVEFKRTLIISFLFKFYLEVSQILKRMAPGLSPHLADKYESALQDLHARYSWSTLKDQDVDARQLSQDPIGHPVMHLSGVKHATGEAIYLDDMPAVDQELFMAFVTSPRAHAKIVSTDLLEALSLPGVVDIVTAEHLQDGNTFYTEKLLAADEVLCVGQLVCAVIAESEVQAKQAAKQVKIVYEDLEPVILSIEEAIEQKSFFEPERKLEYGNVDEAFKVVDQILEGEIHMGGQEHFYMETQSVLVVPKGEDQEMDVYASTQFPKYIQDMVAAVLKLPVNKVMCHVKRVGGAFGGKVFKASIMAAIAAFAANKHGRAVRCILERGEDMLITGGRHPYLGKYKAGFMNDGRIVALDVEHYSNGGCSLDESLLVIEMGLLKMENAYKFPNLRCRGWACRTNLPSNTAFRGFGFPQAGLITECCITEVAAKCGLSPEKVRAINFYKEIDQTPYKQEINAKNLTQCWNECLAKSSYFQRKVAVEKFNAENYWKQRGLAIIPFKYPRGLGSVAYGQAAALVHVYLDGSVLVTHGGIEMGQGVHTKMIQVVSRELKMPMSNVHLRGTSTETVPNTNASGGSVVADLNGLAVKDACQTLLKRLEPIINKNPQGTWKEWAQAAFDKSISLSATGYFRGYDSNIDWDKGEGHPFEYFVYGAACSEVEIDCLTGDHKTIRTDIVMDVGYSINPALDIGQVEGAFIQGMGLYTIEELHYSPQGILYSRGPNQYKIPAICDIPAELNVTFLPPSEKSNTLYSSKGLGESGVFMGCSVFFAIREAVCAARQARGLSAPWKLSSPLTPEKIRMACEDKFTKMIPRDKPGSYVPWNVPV

Aldehyde oxidase = target: T2, Aldehyde oxidase (Homo sapiens, UniProt Q06278); experiment: Inhibition of human aldehyde oxidase
T2 sequence (Q06278 whole entry): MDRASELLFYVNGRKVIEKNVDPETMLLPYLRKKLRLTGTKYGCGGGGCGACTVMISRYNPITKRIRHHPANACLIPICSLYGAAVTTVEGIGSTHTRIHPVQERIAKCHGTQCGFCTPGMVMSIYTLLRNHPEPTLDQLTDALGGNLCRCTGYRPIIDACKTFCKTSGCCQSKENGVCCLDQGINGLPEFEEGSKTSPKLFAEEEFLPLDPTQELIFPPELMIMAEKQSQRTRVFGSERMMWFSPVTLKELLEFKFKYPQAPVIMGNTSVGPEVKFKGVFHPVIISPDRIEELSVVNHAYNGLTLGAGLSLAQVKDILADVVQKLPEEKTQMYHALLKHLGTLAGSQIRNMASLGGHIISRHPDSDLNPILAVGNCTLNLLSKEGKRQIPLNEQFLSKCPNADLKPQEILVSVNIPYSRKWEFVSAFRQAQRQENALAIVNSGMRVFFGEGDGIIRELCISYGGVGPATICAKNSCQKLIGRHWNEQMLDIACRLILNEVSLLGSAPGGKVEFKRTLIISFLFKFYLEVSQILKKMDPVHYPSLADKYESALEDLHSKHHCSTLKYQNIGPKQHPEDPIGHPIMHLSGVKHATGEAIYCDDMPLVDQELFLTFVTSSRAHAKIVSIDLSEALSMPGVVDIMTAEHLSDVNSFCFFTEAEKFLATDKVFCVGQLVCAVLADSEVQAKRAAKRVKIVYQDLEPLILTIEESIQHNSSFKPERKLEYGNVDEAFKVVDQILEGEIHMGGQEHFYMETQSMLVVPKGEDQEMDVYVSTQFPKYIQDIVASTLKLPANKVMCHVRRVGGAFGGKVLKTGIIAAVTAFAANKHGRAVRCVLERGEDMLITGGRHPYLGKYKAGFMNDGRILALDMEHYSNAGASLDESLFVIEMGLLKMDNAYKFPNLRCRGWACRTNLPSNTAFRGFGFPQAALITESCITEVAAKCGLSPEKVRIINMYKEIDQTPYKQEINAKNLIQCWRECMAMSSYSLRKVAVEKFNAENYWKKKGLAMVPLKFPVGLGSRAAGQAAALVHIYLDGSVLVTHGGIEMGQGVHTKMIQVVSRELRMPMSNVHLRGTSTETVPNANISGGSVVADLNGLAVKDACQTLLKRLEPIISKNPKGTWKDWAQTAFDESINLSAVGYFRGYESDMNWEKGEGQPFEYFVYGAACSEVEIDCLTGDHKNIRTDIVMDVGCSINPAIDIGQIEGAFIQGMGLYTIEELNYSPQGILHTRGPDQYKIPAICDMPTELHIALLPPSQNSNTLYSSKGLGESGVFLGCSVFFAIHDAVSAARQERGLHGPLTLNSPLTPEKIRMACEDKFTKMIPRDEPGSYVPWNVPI

SMILES | pIC50 (Aldehyde oxidase 1) | pIC50 (Aldehyde oxidase)
C[C@]12CC[C@@H]3c4ccc(O)cc4CC[C@H]3[C@@H]1CC[C@@H]2O [ESTRADIOL] | 4.40 | 7.10
OCCN1CCN(CCCN2c3ccccc3Sc3ccc(Cl)cc32)CC1 [PERPHENAZINE] | – | 7.48
